Data reported in US12516104B2, “Compositions and methods for diagnosis and treatment of cancer” (BioNTech SE, priority 2018, dated 2026).
Ends that are not written are not given here.

Key:
FN-6789 = target: T1, FN-6789 (Homo sapiens, UniProt P02751); experiment: ELISA specificity: binding of Trx-cystine-knot miniproteins to off-target FN-6789 and control proteins; details: for off-target and control protein signals: 200 nM Trx-fusion, FN-6789, milk powder, streptavidin, bovine serum albumin
T1 construct: type III domains 6-9 without EDB (FN-6789); made in house; host or cells: E. coli BL21 (DE3), pET-21a
T1 sequence (P02751 32-2386 isoform P02751-1 limits assumed): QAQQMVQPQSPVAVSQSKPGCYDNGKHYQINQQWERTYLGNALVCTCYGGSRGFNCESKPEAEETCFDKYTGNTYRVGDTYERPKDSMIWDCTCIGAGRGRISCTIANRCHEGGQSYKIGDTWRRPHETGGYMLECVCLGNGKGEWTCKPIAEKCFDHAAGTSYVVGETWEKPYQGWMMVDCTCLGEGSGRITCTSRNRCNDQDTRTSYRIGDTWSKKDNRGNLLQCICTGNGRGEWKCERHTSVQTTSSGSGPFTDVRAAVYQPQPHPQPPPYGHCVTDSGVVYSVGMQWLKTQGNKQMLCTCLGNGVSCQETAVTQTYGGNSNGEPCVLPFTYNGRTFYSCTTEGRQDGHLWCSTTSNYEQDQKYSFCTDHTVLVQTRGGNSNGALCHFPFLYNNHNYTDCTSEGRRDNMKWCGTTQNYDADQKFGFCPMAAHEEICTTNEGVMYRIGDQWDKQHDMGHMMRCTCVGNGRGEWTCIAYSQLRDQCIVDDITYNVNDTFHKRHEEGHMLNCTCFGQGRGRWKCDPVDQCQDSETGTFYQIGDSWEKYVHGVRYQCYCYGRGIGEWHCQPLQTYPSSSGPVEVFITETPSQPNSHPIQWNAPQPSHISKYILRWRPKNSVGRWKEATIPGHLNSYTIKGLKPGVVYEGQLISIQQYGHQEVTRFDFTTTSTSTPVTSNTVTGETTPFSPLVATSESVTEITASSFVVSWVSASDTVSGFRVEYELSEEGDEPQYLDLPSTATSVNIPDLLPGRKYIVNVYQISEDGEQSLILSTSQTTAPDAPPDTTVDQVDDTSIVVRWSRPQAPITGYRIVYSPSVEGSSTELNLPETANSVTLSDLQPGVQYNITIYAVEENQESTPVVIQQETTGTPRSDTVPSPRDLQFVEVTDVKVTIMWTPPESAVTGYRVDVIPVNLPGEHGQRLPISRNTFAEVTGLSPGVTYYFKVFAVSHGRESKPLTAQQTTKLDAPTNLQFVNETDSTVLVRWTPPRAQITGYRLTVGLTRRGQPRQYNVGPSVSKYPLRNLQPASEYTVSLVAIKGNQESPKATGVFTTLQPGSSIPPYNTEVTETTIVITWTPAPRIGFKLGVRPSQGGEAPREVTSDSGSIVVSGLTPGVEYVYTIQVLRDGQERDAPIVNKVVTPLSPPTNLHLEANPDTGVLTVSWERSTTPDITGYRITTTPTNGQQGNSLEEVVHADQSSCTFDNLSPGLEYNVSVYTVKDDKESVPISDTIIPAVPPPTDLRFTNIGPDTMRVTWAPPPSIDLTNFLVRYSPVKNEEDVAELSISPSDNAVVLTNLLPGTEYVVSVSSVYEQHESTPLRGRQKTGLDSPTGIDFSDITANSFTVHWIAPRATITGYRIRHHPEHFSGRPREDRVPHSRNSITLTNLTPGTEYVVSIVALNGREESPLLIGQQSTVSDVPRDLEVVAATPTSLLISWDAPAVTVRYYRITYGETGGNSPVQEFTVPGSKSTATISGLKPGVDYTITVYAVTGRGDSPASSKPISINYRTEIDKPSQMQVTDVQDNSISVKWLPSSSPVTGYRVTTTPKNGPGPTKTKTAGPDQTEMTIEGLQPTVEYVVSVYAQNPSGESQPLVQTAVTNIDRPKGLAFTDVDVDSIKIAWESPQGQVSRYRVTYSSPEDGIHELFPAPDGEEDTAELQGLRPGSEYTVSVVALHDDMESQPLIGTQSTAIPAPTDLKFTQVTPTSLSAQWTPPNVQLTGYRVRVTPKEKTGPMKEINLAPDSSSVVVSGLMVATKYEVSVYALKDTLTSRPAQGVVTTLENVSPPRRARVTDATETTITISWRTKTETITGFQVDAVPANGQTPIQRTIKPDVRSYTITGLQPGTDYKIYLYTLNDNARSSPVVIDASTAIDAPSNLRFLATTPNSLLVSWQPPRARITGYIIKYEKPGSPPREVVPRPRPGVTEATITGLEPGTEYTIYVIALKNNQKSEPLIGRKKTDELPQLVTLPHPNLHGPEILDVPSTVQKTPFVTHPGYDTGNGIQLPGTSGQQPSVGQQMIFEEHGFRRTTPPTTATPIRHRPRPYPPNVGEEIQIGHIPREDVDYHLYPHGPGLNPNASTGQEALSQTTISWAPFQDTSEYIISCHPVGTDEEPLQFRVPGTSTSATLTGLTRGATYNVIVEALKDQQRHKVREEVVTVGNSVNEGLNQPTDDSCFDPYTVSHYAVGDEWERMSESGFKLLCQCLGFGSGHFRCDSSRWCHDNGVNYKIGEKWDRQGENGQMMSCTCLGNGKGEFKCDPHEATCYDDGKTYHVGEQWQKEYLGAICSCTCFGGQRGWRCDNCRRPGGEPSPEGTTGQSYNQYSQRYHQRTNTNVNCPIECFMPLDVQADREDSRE
Method: FIG. 4: Specificity analysis of Trx-cystine-knot miniprotein clones MCopt 1.0-1/-2/-3 and MCopt 2.0-1/-2/-3. 200 nM of each variant were applied to immobilized FN-B and FN-67B89 target proteins as well as to control proteins FN-6789, milk powder and bovine serum albumin (coated at 1 μg/well). An HRP-conjugated anti-s-tag antibody was used to analyze binding. ELISA was performed in duplicates with Trx-MC-Myc-010 serving as negative control.
FIG. 5: Extended specificity analysis of Trx-cystine-knot miniprotein clones MCopt 1.0-2/-3 and MCopt 2.0-1/-2/3. In total 200 nM of each variant were applied to FN-B, T7-TEV-B, FN-67B89 and FN-B(8-14) target proteins as well as negative controls FN-6789, milk powder, bovine serum albumin, lysozyme, ovalbumin and aldolase (coated at 1 μg/well). ELISA was performed in duplicates, error bars represent standard deviation and Trx-MC-Myc-010 served as negative cystine-knot miniprotein control.
FIG. 6: Saturation-binding curves of MCopt 1.0-2/-3 and MCopt 2.0-1/-2/-3 EDB binding. Trx-cystine-knot miniprotein binding was assayed against FN-B, FN-67B89 and FN-B(8-14) targets as well as against FN-6789 control protein (coated at 1 μg/well) in ten different concentrations. Binding of Trx-cystine-knot miniproteins was detected with an HRP-conjugated anti-s-tag-antibody. ELISAs were performed in duplicates (single values for FN-B(8-14)). A: from top to bottom SEQ ID NOs: 7, 8, and 12; and B: from top to bottom SEQ ID NOs: 11, 8, and 29.
FIG. 9: A: Specificity analysis of Trx-MC-FN-010 to human FN-67B89 and FN-6789 using ELISA. B: Specificity analysis of Trx-MC-FN-016 to human FN-67B89 and FN-6789 using ELISA. Binding of Trx-MC-FN-010 and Trx-MC-FN-016 to FN-67B89 with concentrations ranging from 1.56-50 nM in comparison to FN-6789 was detected with 50 ng of HRP-conjugated anti-S-tag-antibody. ELISA was performed in duplicates using 1 μg coated FN-67B89 or FN-6789 per well.
ELISA was used as technique to analyze protein-protein interactions. Cavities of 96-well microtiter plates (Nunc MaxiSorp™, Thermo Fisher Scientific) were coated with 1 μg FN-B, bovine serum albumin (BSA, Eurobio), milk powder, streptavidin (Sigma Aldrich), T7-His-TEV-B (LD BioPharma), FN-B(8-14) (R&D Systems), lysozyme, ovalbumin (GE Healthcare Life Science), aldolase (GE Healthcare Life Science) or 0.6 μg anti-c-myc-antibody (M4439, Sigma) overnight at 4° C. The wells were washed three times with PBS-T (1×PBS with 0.1% (w/v) Tween-20), blocked with 1× Casein buffer (Sigma Aldrich) diluted in PBS for 2 h at RT and washed again as described. 20 μL of supernatant containing the respective heat-purified fusion protein was added to 80 μL PBS-T or 200 nM of MC-Myc-010 fusion protein (wells with anti-c-myc-antibody) diluted in PBS-T, applied to the cavities and incubated for 1 h at 4° C. After three times of washing with PBS-T, binding of the respective variant was detected with a horseradish peroxidase (HRP)-conjugated anti-S-tag antibody (ab18589 or ab19324, Abcam). Enzymatic reaction was measured with TMB as a chromogenic substrate and stopped with 0.2 M HCl after approximately 5 min. The measurement of absorbance at 450 nm was performed using an Infinite M200 PRO Microplate Reader (Tecan).

U-87 MG tumor tissues = experiment: Immunofluorescence staining of U-87 MG xenograft tumor sections; format: binding, human; details: biotinylated miniprotein tetramerized with Cy3-labeled streptavidin; CD31 co-staining
Method: FIG. 8: Specific binding of MC-FN-010 to glioblastoma xenograft tumor sections. Representative results of immunofluorescence staining of U-87 MG tumor tissues with EDB ligand MC-FN-010 and negative control MC-FN-0115. The tissue sections (5 μm) were stained with tetramerized cystine-knot miniprotein-biotin strepatividin-Cy3 complex (red) and with an anti-CD31 antibody to visualize vasculature (green). Scale bars indicate 100 μm.
FIG. 13: Specific binding of MC-FN-010 to tissue sections derived from the human U-87 MG glioblastoma cell line grown as mouse xenograft tumor. […] Tissue sections (6 μm) were stained with Alexa Fluor 680 conjugated trimeric cystine-knot miniproteins and an anti-CD31 antibody detected with a secondary antibody to visualize vasculature. […]
(§1) For immunofluorescence staining cryopreserved tumor or brain pieces were cut in five micron thick sections, fixed in ice cold acetone for 5 min and air-dried. […] Images were captured with a Zeiss Apotome microscope (Carl Zeiss) and analyzed with ZEN software (Carl Zeiss).
(§2) Cryopreserved tumor or brain pieces were cut in six micron thick sections, fixed in l ice cold acetone for 5 min and air-dried. […] CD31 staining of primary anti-mouse CD31 antibody was detected with a secondary anti-rabbit IgG-Cy3 antibody (111-165-003, Jackson ImmunoResearch) diluted 1:400 in PBS with 1% BSA for 30 min at 37° C. […]

normal mouse brain = experiment: Immunofluorescence staining of normal mouse brain sections; format: binding; details: biotinylated miniprotein tetramerized with Cy3-labeled streptavidin
Method: FIG. 12: Representative immunofluorescence staining of normal mouse brain with EDB ligand MC-FN-010 and negative control MC-FN-0115. Tissue sections (6 μm) were stained with tetramerized cystine-knot miniprotein-biotin/strepatividin-Cy3 complex and an anti-CD31 antibody to visualize vasculature. Scale bars, 100 μm.
FIG. 13: Specific binding of MC-FN-010 to tissue sections derived from the human U-87 MG glioblastoma cell line grown as mouse xenograft tumor. Representative immunofluorescence staining of U-87 MG tumor tissues (A) and normal mouse brain (B) with trimeric MC-FN-010 and negative control MC-FN-0115. Tissue sections (6 μm) were stained with Alexa Fluor 680 conjugated trimeric cystine-knot miniproteins and an anti-CD31 antibody detected with a secondary antibody to visualize vasculature. […]
as §1, §2

FN-67B89 = target: T2, FN-67B89 (Homo sapiens, UniProt P02751); experiment: Surface plasmon resonance spectroscopy on immobilized biotinylated FN-67B89; format: binding; details: for off-rates / binding affinity towards biotinylated FN-67B89: tag-free monomer; for binding affinity towards biotinylated FN-67B89: multi cycle kinetic, 1:1 Langmuir
T2 construct: FN-67B89, amino acid G1080-E1455; made in house; host or cells: E. coli BL21 (DE3), pET-21a
T2 sequence (P02751 1080-1546): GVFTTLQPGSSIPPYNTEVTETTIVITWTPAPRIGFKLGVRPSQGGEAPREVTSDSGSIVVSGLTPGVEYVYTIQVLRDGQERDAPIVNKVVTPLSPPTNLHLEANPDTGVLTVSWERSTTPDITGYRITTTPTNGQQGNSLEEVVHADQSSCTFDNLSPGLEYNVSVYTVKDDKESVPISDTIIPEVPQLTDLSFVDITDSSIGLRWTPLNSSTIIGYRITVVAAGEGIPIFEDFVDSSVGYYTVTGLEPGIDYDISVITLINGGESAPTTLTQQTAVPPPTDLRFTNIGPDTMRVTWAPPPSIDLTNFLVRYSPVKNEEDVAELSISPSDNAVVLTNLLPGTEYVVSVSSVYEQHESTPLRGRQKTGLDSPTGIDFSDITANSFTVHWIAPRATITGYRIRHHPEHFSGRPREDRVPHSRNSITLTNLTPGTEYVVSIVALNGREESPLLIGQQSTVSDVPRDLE
Method: FIG. 10: A: Kinetic parameters of MC-FN-010 and MC-FN-016 resulting from surface plasmon resonance analysis. Biotinylated human FN-67B89 was immobilized to streptavidin sensor to perform affinity determination of MC-FN-010 and MC-FN-016 using two-fold serial dilutions starting from 4000 nM. Kinetic parameters were calculated using a 1:1 Langmuir fitting model applied to generated sensorgrams. B: Kinetic parameters of AF680-(MC-FN-010)3 and AF680-(MC-FN-016)3 resulting from surface plasmon resonance with single cycle kinetic analysis. Biotinylated human FN-67B89 was immobilized to streptavidin chip to perform binding determination of AF680-(MC-FN-010)3 and AF680-(MC-FN-016)3 using two-fold serial dilution starting from 10 nM. Kinetic parameters were calculated using a 1:1 Langmuir fitting model applied to generated sensorgrams.
FIG. 15: SPR binding analysis of cystine-knot miniprotein variants to EDB. Kinetic parameters of EDB-specific cystine-knot miniprotein variants as measured by surface plasmon resonance analysis and calculated using a 1:1 Langmuir fitting model. Biotinylated human FN-67B89 was immobilized to a streptavidin sensor to determine affinity of DOTA-(MC-FN-016)3 using two-fold serial dilutions.
Binding kinetics of monomeric and trimeric cystine-knot miniprotein ligands to its target protein was determined using a Biacore T-100 device (GE Healthcare Life Science) with PBS-T as running buffer. For this, the biotinylated FN-67B89 protein (200-300 μg/mL) was captured by binding to a flow cell of a SA sensor chip (GE Healthcare Life Science). To analyze monomeric ligands an immobilized target density of maximum 750 response units (RU) was applied and for trimeric variants a RU of maximum 400 was aimed for. Binding analysis of monomeric ligands was performed using a multi cycle kinetic method with concentrations ranging from 50 to 4000 nM. A cycle started with an association period of 90 sec, followed by a dissociation period of 420 sec and a final regeneration step. Kinetic measurement was conducted applying a flow rate of 20 μL/min. Trimeric variants were analyzed under the same association and dissociation conditions, but using the single cycle kinetic measurement mode in a constant flow of […]. In this case the analyte concentration was between 1.25 nM to 10 nM. Binding kinetics and steady state analysis were calculated using a global kinetic fit model (1:1 Langmuir, Biacore T-100 Evaluation Software, GE Healthcare Life Science).

How did the “off-target and control protein signals” value (FN-6789) turn out when “MCopt 1.0-1: enriched cystine-knot miniprotein clone without the R-I/V-R-(L) motif, SEQ ID NO: 10 (WTCTKKYPNTISCRRDSDCRVTCICRGNGYCG; EDB binding peptide)” was run?
Its value is “high interaction”.

How did the “immunofluorescence staining of U-87 MG tumor sections” value (U-87 MG tumor tissues) turn out when “PMCTQRANRIAACRRDSDCTGACICRGNGYCG (Control peptide) [MC-FN-0115, reference compound]” was run?
The value was “no fluorescence signal at all”.

What about the “fluorescence signal on normal mouse brain section” value (normal mouse brain) of the same substance?
Its value is “No fluorescence signal”.

How did the off-rates (FN-67B89) turn out when “PMCTQRANRIRLCRRDSDCTGACICRGNGYCG [MC-FN-016]” was run?
The off-rates was “fast”.

What about the “binding affinity towards biotinylated FN-67B89” value (FN-67B89) of the same substance?
The value was “one digit micromolar range”.

“PMCTQRKNRIRLCRRDSDCTGACICRGNGYCG (cysteine pairing not given here) [MC-FN-010]” was tested. Which off-rates (FN-67B89) did it give?
The off-rates was “fast”.

And the “binding affinity towards biotinylated FN-67B89” value (FN-67B89)?
The value was “one digit micromolar range”.

What about the “binding towards FN-67B89 target protein” value (FN-67B89; tag-free proteins, 50-1000 nM, data not shown) of the same substance?
The value was “strong binding”.

And the “fluorescence signal on normal mouse brain section” value (normal mouse brain)?
Its value is “No fluorescence signal”.

What about the “off-target and control protein signals” value (FN-6789) of the same substance?
The value was “medium to low”.

With “SVCAHYNTIRVRLCRRDSDCPGACICRGNGYCG (cysteine pairing not given here) [MCopt 2.0-2]” as the substance, how does the “off-target and control protein signals” value (FN-6789) read?
Its value is “medium to low”.

How did the “off-target and control protein signals” value (FN-6789) turn out when “SVCKNVSIMRIRLCRRDSDCPGACICRGNGYCG (cysteine pairing not given here) [MCopt 2.0-1]” was run?
Its value is “medium to low”.

With “SVCKQANFVRIRLCRRDSDCPGACICRGNGYCG (cysteine pairing not given here) [MCopt 2.0-3]” as the substance, how does the “off-target and control protein signals” value (FN-6789) read?
Its value is “medium to low”.

What about the “background signals / unspecific binding towards FN-6789 off-target” value (FN-6789; dose-dependent saturation-binding ELISA, compared with EDB containing target proteins) of the same substance?
Its value is “high degree of unspecific binding”.

“WKCQPTNGYRIRCRRDSDCPGDCICRGNGYCG (cysteine pairing not given here) [MCopt 1.0-2]” was tested. Which “off-target and control protein signals” value (FN-6789) did it give?
Its value is “medium to low”.
